Test results taken from PMC7816853, “Overexpression of the chloroplastic 2-oxoglutarate/malate transporter disturbs carbon and nitrogen homeostasis in rice” (Journal of Experimental Botany, 2020).

Target: T1, ZmOMT1 (Zea mays, UniProt Q768R5)
T1 construct: gene ZmpOMT1; full-length CDS with C-terminal AcV5 tag kept; expressed in transgenic rice (Oryza sativa indica IR64) leaf mesophyll; total leaf membrane protein reconstituted into liposomes; calculated ~60 kDa, 40 kDa on blot
T1 sequence (Q768R5 81-578): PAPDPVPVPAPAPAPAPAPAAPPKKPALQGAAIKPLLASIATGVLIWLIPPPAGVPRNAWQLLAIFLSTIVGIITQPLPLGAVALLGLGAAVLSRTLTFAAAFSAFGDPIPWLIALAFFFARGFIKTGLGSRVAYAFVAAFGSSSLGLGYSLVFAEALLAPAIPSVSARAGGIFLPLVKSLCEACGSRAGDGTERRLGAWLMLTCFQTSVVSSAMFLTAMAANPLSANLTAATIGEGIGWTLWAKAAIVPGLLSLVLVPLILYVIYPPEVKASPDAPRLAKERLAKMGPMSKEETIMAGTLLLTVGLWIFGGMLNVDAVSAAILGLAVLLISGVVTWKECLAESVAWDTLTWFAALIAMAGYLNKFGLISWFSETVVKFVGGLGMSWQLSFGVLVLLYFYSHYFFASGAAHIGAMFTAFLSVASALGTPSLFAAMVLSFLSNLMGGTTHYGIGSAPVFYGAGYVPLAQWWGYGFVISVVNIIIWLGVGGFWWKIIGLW
Assay: […]malate uptake into proteoliposomes, malate/malate counterexchange
Assay type: biochemical
Settings: pH 7.5; 30 mM malate preloaded inside; 0.3 mM external [14C]malate; total leaf membrane protein of transgenic rice versus wild type (native rice transporters present); labelled compound

In the case of O=C(O)C[C@H](O)C(=O)O [malate], the “[14C]malate uptake into proteoliposomes, malate/malate counterexchange” value was “significantly higher malate–malate counterexchange activity in liposomes reconstituted with membrane proteins from overexpression lines”.
